The values that follow come from patent US8003345B2, “Antioxidant pharmaceutical compound, method for producing polypeptide and method of cure” (Institute of Cell Biophysics Russian Academy of Sciences, priority 2002, dated 2011).

Data set [1] deals with tracheal epithelium of rat after application of lipopolysaccharide. Put plainly: Inflammation of rat tracheal epithelium caused by lipopolysaccharide (LPS). The format is in vivo. As for the experimental part:
The therapeutic properties of peroxiredoxin Prx VI in treating the upper respiratory tract of rat immediately after the application of LPS were checked on a group of 4 Wistar line rats weighing 150-200 grams. The application of LPS was carried out in the following manner. The rats were anesthetized with hexenal, and 100 μl of a lipopolysaccharide solution were introduced through a catheter (the lipopolysaccharide concentration was from 10^−9 to 10^−11 mg/ml, the total number of the used animals was 20). After the application of the lipopolysaccharide, the rats were maintained for a definite period of time (1 hour, 3 hours, 6 hours, 7 hours, 9 hours), then narcotized with hexenal (300 mg/kg weight), and a sample of the tracheal epithelial tissue was isolated. For histochemical investigations the isolated sample was placed into a fixing solution containing 2% of formaldehyde and 0.5% of glutaraldehyde. The tissue was dehydrated by sequential routing through ethyl alcohol with increasing concentration (40-100%). The tissue was embedded into LR white resin. The resin was polymerized at room temperature. 0.5 em-thick sections were made on an LKB ultratome (Sweden), using glass knives. The sections were stained with a hematoxylin-eosine and analyzed under a light microscope.
For biochemical investigations we scraped the epithelium with a thin spatula, washed off the scrape with physiological solution and centrifugated at 10000 g for 15 min. The concentration of hydrogen peroxide was by the luminescence method. […] After LPS, application of a solution of a composition based on peroxiredoxin Prx VI into the trachea was carried out. Preliminarily the rats were narcotized by intraperitoneal administration of hexenal (70 mg/kg), the animals were fixed on an operating table, and under visual control with the aid of a binocular lens, through a catheter of 1 mm in diameter, peroxiredoxin solution (20 to 100 μl) was introduced into the trachea. The peroxiredoxin concentration was from 0.5 to 5.0 mg/ml. A 0.9% solution of NaCl was used as the solvent. The application of the solution of the composition was carried out once, immediately after the application of LPS. The application of pure solvent, solutions of serum albumin (10 mg/ml) and of glutathione (10 mM) were used as control.
Histological investigation of the trachea was carried out 24 hrs after the LPS application.

Data set [2] has the same test system. The data set is described as above. Format: in vivo. The source holds these as a separate data set.
The test system of data set [3] is glutamine synthetase. Put plainly: Comparative characteristics of peroxiredoxin activators (glutamine synthetase protection against metal-catalyzed oxidative system). Particulars: 50 μg peroxiredoxin VI, FIG. 11. The format is biochemical. As for the experimental part: The antioxidant activity was determined from the degree of glutamine synthetase protection against metal-catalyzed oxidative system. The antioxidant effectiveness of thiols was determined in molar concentration, at which 50% protection of glutamine synthetase took place.
For determining the effectiveness of peroxiredoxin activation with dithiothreitol or with dihydrolipoic acid (natural activator), use is made of the ability of peroxiredoxin to protect glutamine synthetase from inactivation caused by the metal-catalyzed oxidative system.
The degree of the peroxiredoxin activity was determined from the protein concentration value, at which 50% preservation of the glutamine synthetase activity was observed.

Data set [4] is described as follows: Cytotoxicity: number of live line L929 cells. The format is cell-based, human. As to conditions: 0.1-10 μg/ml concentration; Trypan stain. As for the experimental part:
(§1) The cytotoxicity is determined from the influence of recombinant Prx V1hum or of natural rat Prx V1rat on the level of proliferation of line L929 human lymphoblastoma cells and of T-lymphocytes from the spleen of line NRRI rats stimulated with concavalin A.
(§2) Cells of two lines with the concentration of 10^4 cells/ml medium were cultivated in RPMI 1640 containing 5% of bovine fetal serum. The stimulation of T-lymphocytes was carried out with the 0.1 μg/ml concentration of concavalin. In the case of T-lymphocytes the proliferation level was determined from the inclusion of ^3H-thymidine. The number of live line L929 cells was determined in a 96-cell plate with the aid of a Trypan stain, followed by scanning on a Multiscan multichannel photometer (LKB, Sweden).

Data set [5] has as its system T-lymphocytes from the spleen of line NRRI rats stimulated with concavalin A. Put plainly: Proliferation of concanavalin A-stimulated T-lymphocytes (3H-thymidine inclusion). The format is cell-based. Particulars: 0.1-1.0 mg/ml concentration, against cells stimulated only with concavalin A. As for the experimental part:
as §1, §2

The subject of data set [6] is skin cuts of rats. In words: Treating skin wounds (cuts) in rats. As to conditions: in 5 days; 0.5 mg/ml in 0.15 M NaCl, bandages changed once a day; against control; FIG. 10. Format: in vivo, rat. As for the experimental part:
Rats were preliminarily narcotized by intraperitoneal introduction of hexenal (70 mg/kg). The animals were fixed on an operating table, and then 2-3 mm deep and 1 cm long cuts were made in the skin of both paws with the help of a razor blade. Control cuts were irrigated with physiological solution and a bactericidal plaster was applied; in the case of using peroxiredoxin, the wound was irrigated with a solution of recombinant Prx Vlhum or of its fragment ΔPrx Vlhum in 0.15 M NaCl in 0.5 mg/ml concentration, and a gauze bandage soaked with the same solutions was applied. The bandages were changed once a day.

Data set [7] relates to glutamine synthetase of E.coli. As to conditions: DTT/Fe3+/O2 oxidative system, 3 mM activator, 10 min at 37° C.; FIG. 3.
Protocol: Comparison of the protector properties of recombinant full-size Prx Vlhum with the protector properties of natural rat Prx VIrat and with the protector properties of N-terminal ΔPrx V1hum in terms of protecting glutamine synthetase of E.coli from inactivation in a model oxidative system in vitro.
For determining the activity of different types of peroxiredoxins, their ability to protect glutamine synthetase from the DTT/Fe^+3/O2 oxidative system is measured. Glutamine synthetase is isolated from cells of the E.coli DH5α strain (Streicher S. L., Tyler B., 1980) and inactivated in the presence of a Fe^3+/O2 oxidative system and a peroxiredoxin activator—in the model oxidative system generating free radicals (Kim K. et al., 1988). […] The residual activity of glutamine synthetase is assessed by adding to the sample 200 μl of a reaction mixture which comprises: ADP, 0.4 mM; glutamine, 150 mM; K—AsO4, 10 mM; NH2OH, 20 mM; MnCl2, 0.4 mM; HEPES, 100 mM, pH 7.4. […] The protector properties of peroxiredoxin for protecting glutamine synthetase of E.coli from inactivation are determined as the ratio of the remaining activity of the enzyme after the inactivation in the presence of different concentrations of peroxiredoxin to the activity of non-inactivated glutamine synthetase.

For `N[C@@H](CCC(=O)N[C@@H](CS)C(=O)NCC(=O)O)C(=O)O` [Glutathione, glutathione, reference compound], the “Integrity of tracheal epithelium (according to histological data)” value is 30% in data set [1] (Time after the action of LPS: 1 hour); 20% in data set [1] (Time after the action of LPS: 3 hours); 10% in data set [1] (Time after the action of LPS: 6 hours); 20% in data set [2] (Treatment 24 hours later for 5 days and the integrity of epithelium 2 weeks later). The “effect on tracheal epithelium after LPS (in words)” value in data set [2] (other antioxidants, see Table 2) was “no significant effect”.

For `O=C(O)CCCC[C@@H](S)CCS` (racemic) [dihydrolipoic acid], the “antioxidant effectiveness of thiols (degree of glutamine synthetase protection)” value in data set [3] was “almost equal to dithiothreitol and substantially surpasses the effectiveness of lipoic acid”.

B1: Prx VIrat: natural peroxiredoxin isolated from the olfactory epithelium of a Wistar line rat, 223 amino acids (protein, UniProt O35244 2-224, looked up)
Peroxiredoxin-6: PGGLLLGDEAPNFEANTTIGHIRFHDFLGDSWGILFSHPRDFTPVCTTELGRAAKLAPEFAKRNVKLIALSIDSVEDHFAWSKDINAYNGAAPTEKLPFPIIDDKDRDLAILLGMLDPAEKDEKGMPVTARVVFIFGPDKKLKLSILYPATTGRNFDEILRVVDSLQLTASNPVATPVDWKKGESVMVLPTLPEEEAKQLFPKGVFTKELPSGKKYLRYTPQP
As for B1, the “effect on the number of live line L929 cells” value in data set [4] was “did not produce any effect”. For the same molecule, in data set [5], the “cell proliferation level of T-lymphocytes stimulated with concavalin A” value is given as “increased approximately twofold”.

B2: ΔPrx VIhum: N-terminal fragment of human peroxiredoxin Prx VI (SEQ ID NO: 2), length 177 a.b., molecular mass 19691.61 Da (protein, listed as Homo sapiens)
chain: MPGGLLLGDVAPNFEANTTVGRIRFHDFLGDSWGILFSHPRDFTPVCTTELGRAAKLAPEFAKRNVKLIALSIDSVEDHLAWSKDINAYNCEEPTEKLPFPIIDDRNRELAILLGMLDPAEKDEKGMPVTARVVFVFGPDKKLKLSILYPATTGRNFDEILRVVISLQLTAEKRVATPVDWKDGDSVMVLPTIPEEEAKKLFPKGVFTKELPSGKKYLRYTPQP
As for B2, the “healing of the wound” value in data set [6] is “almost complete healing of the wound”. Also, the “protector properties: antioxidant characteristics in protecting glutamine synthetase from inactivation” value in data set [7] is recorded as “close to the recombinant full-size Prx Vlhum”.
